This is an account of results in US20240287003A1, “ETHACRYNIC ACID DERIVATIVES AS INHIBITORS OF MPRO PROTEASE AND SARS-COV-2 REPLICATION” (UNIVERSITE EUROMEDITERRANEENNE DE FES, priority 2021, published 2024).

As usually defined, the EC50 is the midpoint of the concentration-response curve. Broadly, the inhibition is the percentage by which the read-out fell short of the control.

One assay has as its target Mpro (Severe acute respiratory syndrome coronavirus 2, UniProt P0DTD1). The conditions noted are these: read-out: IC50 (half-maximal inhibitory concentration), Dai et al., Science 2020; cited from earlier work.
The subject of assay [1] is SARS-COV-2. The conditions noted are these: VeroE6 cells, RNA replication by qPCR; Hattori et al. 2021; read-out: EC50, blocking of SARS-COV-2 infection; cited from earlier work. A general note: In qPCR the cycle at which signal appears reflects the starting amount.
Assay [2] concerns SARS-COV-2. Description: microbe, parasite or virus in culture. Format: cell-based. The following applies: Vero cells; for reduction in infectivity titres compared with the control: 10 μM; for reduction in the infectivity titres compared with the control: 4 h pre-incubation, MOI 0.04, 48 h; for inhibition at 8 µM / inhibition at 6 µM: Severe acute respiratory syndrome coronavirus 2; for inhibition at 8 µM: read-out: inhibition percentage; for inhibition at 6 µM: read-out: inhibition of viral replication.

For assay [3], the system named is SARS-COV-2. The conditions noted are these: Rut et al., Nat. Chem. Biol. 2021; cited from earlier work.
[4] abbreviates: 6 μM, same experimental conditions.

Where two headings read alike, the source gives them in different places.

On to `O=C[C@H](C[C@@H]1CCNC1=O)NC(=O)[C@H](Cc1cccc(F)c1)NC(=O)c1cc2ccccc2[nH]1` [11b], for which the IC50 on Mpro is 40 nM.

Regarding `O=C(Oc1cncc(Cl)c1)c1cccc2c1CCN2` [GRL-1720], the EC50 with SARS-COV-2 [1] is 15 ± 4 µM.

On to `C=C(CC)C(=O)c1ccc(OCC(=O)Nc2ccc3c(cnn3C)c2)c(Cl)c1Cl` [P7, 2-(2,3-dichloro-4-(2-methylenebutanoyl)phenoxy)-N-(1-methyl-1H-indazol-5-yl)acetamide], for which the “inhibition of viral replication” value in the assay with SARS-COV-2 [2] (setting [4]) is reported as “did not inhibit virus replication at all”. Also, in the assay with SARS-COV-2 [2] (same experimental conditions), the “reduction in infectivity titres compared with the control” value (“reduction in infectivity titres” for short) was determined as 100% and the inhibition at 8 µM is roughly 96.7%. The “reduction in the infectivity titres compared with the control” value (“reduction in the infectivity titres” below) in the assay on SARS-COV-2 [2] (16.6 μM) turned out to be 100%.

With `C=C(CC)C(=O)c1ccc(OCC(=O)Nc2ccc3[nH]ncc3c2)c(Cl)c1Cl` [P26, 2-(2.3-dichloro-4-(2-methylenebutanoyl)phenoxy)-N-(1H-indazol-5-yl)acetamide], in the assay on SARS-COV-2 [2] (same experimental conditions), the “reduction in infectivity titres” value amounted to 93.09% and the inhibition at 8 µM is roughly 52.1%. Besides, the “reduction in the infectivity titres” value with SARS-COV-2 [2] (16.6 μM) was determined as 97.96%. In addition, the inhibition at 6 µM with SARS-COV-2 [2] (setting [4]) was roughly 30%.

As to `C=C(CC)C(=O)c1ccc(OCC(=O)Nc2cccc3cn(C)nc23)c(Cl)c1Cl` [P30, 2-(2,3-dichloro-4-(2-methylenebutanoyl)phenoxy)-N-(2-methyl-2H-indazol-7-yl)acetamide], in the assay with SARS-COV-2 [2] (5.54 μM), the “reduction in the infectivity titres” value came to 96.75%. For the same compound, in the assay on SARS-COV-2 [2] (same experimental conditions), the “reduction in infectivity titres” value amounted to 100% and the inhibition at 8 µM was roughly 99.7%. For the same compound, the inhibition at 6 µM in the assay with SARS-COV-2 [2] (setting [4]) was roughly 30%.

On to Ac-Abu-dTyr-Leu-Gln-VS [Ac-QSS-VS (15)], for which the EC50 in the assay on SARS-COV-2 [3] is 3.7 µM.
